Broadly, the melting point is the temperature of the solid-liquid transition. Usually IC50 stands for the concentration that inhibits the measured activity by half.

Molecules are shown by their SMILES.

For 2 compounds, melting point and IC50 results are on record in US6825197B2, “Cyclic GMP-specific phosphodiesterase inhibitors” (Lilly ICOS LLC, priority 2000, dated 2004).

Series [1] deals with T1, recombinant human PDE5 (Homo sapiens, UniProt O76074).
T1 construct: host or cells: Saccharomyces cerevisiae strain BJ2-54 (ATCC 74465), described as an exemplary method
As to the kind of experiment: Inhibitory effect on cGMP-PDE (PDE5 inhibition, one-step assay). The following applies: in vitro test; human recombinant PDE5, 0.15 μM 8-[H3]-cGMP, 30 minutes incubation; read-out: IC50 values versus PDE5. The format is biochemical. As for the experimental part: The compounds of structural formula (I) were tested for an ability to inhibit PDE5. The ability of a compound to inhibit PDE5 activity is related to the IC50 value for the compound, i.e., the concentration of inhibitor required for 50% inhibition of enzyme activity. The IC50 value for compounds of structural formula (I) were determined using recombinant human PDE5.
The production of recombinant human PDEs and the IC50 determinations can be accomplished by well-known methods in the art. Exemplary methods are described as follows:
Phosphodiesterase activity of the preparations was determined as follows. PDE assays utilizing a charcoal separation technique were performed essentially as described in Loughney et al. (1996). […] The [32P]5′-AMP or [32P]5′-GMP then was quantitatively converted to free [32P] phosphate and unlabeled adenosine or guanosine by the action of snake venom 5′-nucleotidase. […] PDE enzyme was present in quantities that yield <30% total hydrolysis of substrate (linear assay conditions). […] After centrifugation (750×g for 3 minutes) to sediment the charcoal, a sample of the supernatant was taken for radioactivity determination in a scintillation counter and the PDE activity was calculated.
cGMP-PDE activity of compounds of the present invention was measured using a one-step assay adapted from Wells et al., Biochim. […]

`COc1ccc(CC(=O)N2CCN3C(=O)[C@H]4Cc5c([nH]c6ccccc56)[C@@H](c5ccc6c(c5)OCO6)N4C(=O)C3C2)cc1OC` (stereo partly drawn) [Example 3, (5aR,12R)-12-Benzo(1,3)dioxol-5-yl-9-[2-(3,4-dimethoxyphenyl)ethanoyl]-5,5a,8,9, 10, 10a,12,13-octahydro-7H-6a,9,11a,13-tetraaza-indeno[1,2-b]anthracene-6,11-dione] showed a melting point of 284 to 289 °C. For the same compound, the IC50 in series [1] turned out to be 3.9 nM.
For `O=C1[C@H]2Cc3c([nH]c4ccccc34)[C@@H](c3ccc4c(c3)OCO4)N2C(=O)C2CNCCN12` (mixture of isomers) [Example 1, (5aR,12R)-12-Benzo(1,3)dioxol-5-yl-5,5a,8,9,10,10a,12,13-octahydro-7H-6a,9,11a,13-tetraza-indeno[1,2-b]anthracene-6,11-dione], the melting point is 226 to 237 °C. In addition, the half-maximal inhibitory concentration (IC50) in series [1] was found to be 1.7 nM.
